Assay results as given in patent US20240018125A1, “CYCLIC ISOTHIOUREA DERIVATIVES AS CXCR4 MODULATORS” (ERMIUM THERAPEUTICS, priority 2020, published 2024).
pIC50: −log10 of the molar value. Counter-ions that a name gives are not always drawn.

System: peripheral blood mononuclear cells (PBMCs) from healthy donors
Test: IFN production by R848-activated PBMCs, quantified with twINNE luciferase reporter cell line
Format: cell-based, human
Details: Homo sapiens, PBMC; read-out: IC50 of anti-inflammatory activity (IFN production by activated PBMCs)
Procedure: The blood from healthy donors was obtained from “Etablissement Français du Sang” (convention #19/EFS/029), Paris, France.
In vitro experiments were performed using human peripheral blood mononuclear cells (PBMCs) isolated by density centrifugation from peripheral blood leukocyte separation medium, lymphoprep (Stemcell Technologies).
PBMCs were cultured in RPMI 1640 (Sigma-Aldrich, MO, USA) containing 10% heat-inactivated fetal bovine serum (Sigma-Aldrich, MO, USA) at 37° C./5% CO2.
The PBMCs used herein were prepared as described in part A “immune cells preparation”, above. PBMCs were seeded at 4.10^6/mL. Cells were pre-treated with different concentration of examples according to the invention. Cells were then stimulated with the TLR7/8 agonist resiquimod—R848 (Sigma-Aldrich, MO, USA) at 5 μg/mL.
To quantify the secretion of functional IFN, a biological assay based on a stable cell line where luciferase reporter gene is controlled by five Interferon-Stimulated Response Elements (twINNE cell line) was used. First, supernatants of R848-stimulated PBMCs (see part B above) were harvested after 24 h of stimulation and frozen at −20° C. for storage. Then, supernatants were dispensed in culture wells of a 96-well plate containing 35.103 twINNE cells per well in Dulbecco's Modified Eagle's Medium supplemented with 10% Foetal Bovine Serum, 100 U/mL Penicillin and 100 μg/mL Streptomycin (1% Pen-Strep) and 1 mM glutamine (Sigma-Aldrich, MO, USA) at 37° C./5% CO2. After 24 h of culture, luciferase activity was determined by adding 60 μL of Bright-Glo reagents (Promega, Wisconsin, USA) to culture wells and measuring bioluminescence with EnSpire Multimode Plate Reader (PerkinElmer, Massachusetts, USA). When stated, for IC50 calculation, dose-response curves fitted using the nonlin fit (variable slope) analysis in GraphPad Prism software (GraphPad Software, Califronia, USA).
IFN production was quantified (as specified in Materials and Methods, part C “quantification of interferon secretion”) using twINNE reporter cell line.

SMILES	pIC50
C1=C(CSC2=NCc3ccccc3N2)N2C(=N[C@H]3CCCC[C@@H]32)S1 (relative stereo) [Example 13, trans-3-(((3,4-dihydroquinazolin-2-yl)thio)methyl)-4a,5,6,7,8,8a-hexahydrobenzo[4,5]imidazo[2,1-b]thiazole dihydrochloride]	≥ 5.00
C1=C(CSC2=NCc3ccccc3N2)N2C(=N[C@H](c3ccccc3)[C@H]2c2ccccc2)S1 (relative stereo) [Example 16, trans-3-(((3,4-dihydroquinazolin-2-yl)thio)methyl)-5,6-diphenyl-5,6-dihydroimidazo[2,1-b]thiazole dihydrochloride]	≥ 5.00
OC1(CSC2=NCc3ccccc3N2)CSC2=N[C@H](c3ccccc3)[C@@H](c3ccccc3)N21 (relative stereo) [Example 17, trans-3-(((3,4-dihydroquinazolin-2-yl)thio)methyl)-5,6-diphenyl-2,3,5,6-tetrahydroimidazo[2,1-b]thiazol-3-ol dihydrochloride]	< 4.49
c1ccc2c(c1)CN=C(SCCN1C[C@@H]3C[C@H]1CO3)N2 (stereo in doubt) [Example 139, (1S,4S)-5-(2-((1,4-dihydroquinazolin-2-yl)thio)ethyl)-2-oxa-5-azabicyclo[2.2.1]heptane dihydrochloride]	4.49 to 5.00
c1ccc2c(c1)CN=C(SCCN1C[C@H]3C[C@@H]1CO3)N2 (stereo in doubt) [Example 146, (1R,4R)-5-(2-((1,4-dihydroquinazolin-2-yl)thio)ethyl)-2-oxa-5-azabicyclo[2.2.1]heptane dihydrochloride]	4.49 to 5.00
CC1(C)CN2C(CSC3=NCc4cc(Cl)ccc4N3)=CSC2=N1 [Example 1, 3-(((6-chloro-1,4-dihydroquinazolin-2-yl)thio)methyl)-6,6-dimethyl-5,6-dihydroimidazo[2,1-b]thiazole dihydrochloride]	≥ 5.00
CC1(C)CN=C(SCC2=CSC3=Nc4ccc(Cl)cc4CN23)N1 [Example 2, 7-chloro-3-(((5,5-dimethyl-4,5-dihydro-1H-imidazol-2-yl)thio)methyl)-5H-thiazolo[2,3-b]quinazoline dihydrochloride]	4.49 to 5.00
CC1(C)CN2C(CSC3=NCc4ccccc4N3)=CSC2=N1 [Example 3, 3-(((3,4-dihydroquinazolin-2-yl)thio)methyl)-6,6-dimethyl-5,6-dihydroimidazo[2,1-b]thiazole dihydrochloride]	≥ 5.00
Clc1ccc2c(c1)CN1C(CSC3=NCCN3)=CSC1=N2 [Example 4, 7-chloro-3-(((4,5-dihydro-1H-imidazol-2-yl)thio)methyl)-5H-thiazolo[2,3-b]quinazoline dihydrochloride]	≥ 5.00
CC1(C)CN=C(SCC2=CSC3=Nc4ccccc4CN23)N1 [Example 5, 3-(((5,5-dimethyl-4,5-dihydro-1H-imidazol-2-yl)thio)methyl)-5H-thiazolo[2,3-b]quinazoline dihydrochloride]	4.49 to 5.00
CC1(C)CN2C(CSC3=NCc4ccc(Cl)cc4N3)=CSC2=N1 [Example 6, 3-(((7-chloro-1,4-dihydroquinazolin-2-yl)thio)methyl)-6,6-dimethyl-5,6-dihydroimidazo[2,1-b]thiazole dihydrochloride]	≥ 5.00
CC1(C)CN2C(CSC3=NCc4ccccc4CN3)=CSC2=N1 [Example 7, 3-(((2,5-dihydro-1H-benzo[e][1,3]diazepin-3-yl)thio)methyl)-6,6-dimethyl-5,6-dihydroimidazo[2,1-b]thiazole dihydrochloride]	< 4.49
CC1(C)CN=C(SCC2=CSC3=NCc4ccccc4CN23)N1 [Example 8, 3-(((5,5-dimethyl-4,5-dihydro-1H-imidazol-2-yl)thio)methyl)-5,10-dihydrobenzo[e]thiazolo[3,2-a][1,3]diazepine dihydrochloride]	≥ 5.00
CC1(C)CN=C(SCC2=CSC3=Nc4cc(Cl)ccc4CN23)N1 [Example 9, 8-chloro-3-(((5,5-dimethyl-4,5-dihydro-1H-imidazol-2-yl)thio)methyl)-5H-thiazolo[2,3-b]quinazoline dihydrochloride]	4.49 to 5.00
Clc1ccc2c(c1)CN=C(SCC1=CSC3=NCCN13)N2 [Example 10, 3-(((6-chloro-1,4-dihydroquinazolin-2-yl)thio)methyl)-5,6-dihydroimidazo[2,1-b]thiazole dihydrochloride]	≥ 5.00
C1=C(CSC2=NCc3ccccc3N2)N2Cc3ccccc3CN=C2S1 [Example 11, 3-(((3,4-dihydroquinazolin-2-yl)thio)methyl)-5,10-dihydrobenzo[e]thiazolo[3,2-a][1,3]diazepine dihydrochloride]	≥ 5.00
C1=C(CSC2=NCc3ccccc3N2)N2Cc3ccccc3N=C2S1 [Example 12, 3-(((1,4-dihydroquinazolin-2-yl)thio)methyl)-5H-thiazolo[2,3-b]quinazoline dihydrochloride]	≥ 5.00
Clc1ccc(C2CN3C(CSC4=NCc5ccccc5N4)=CSC3=N2)cc1 (stereo not shown) [Example 14, 6-(4-chlorophenyl)-3-(((3,4-dihydroquinazolin-2-yl)thio)methyl)-5,6-dihydroimidazo[2,1-b]thiazole dihydrochloride]	≥ 5.00
C1=C(CSC2=NCc3ccccc3N2)N2CC(C3CCCCC3)N=C2S1 (stereo not shown) [Example 15, 6-cyclohexyl-3-(((3,4-dihydroquinazolin-2-yl)thio)methyl)-5,6-dihydroimidazo[2,1-b]thiazole dihydrochloride]	≥ 5.00
Fc1cccc2c1CN1C(CSC3=NCc4ccccc4N3)=CSC1=N2 [Example 18, 3-(((3,4-dihydroquinazolin-2-yl)thio)methyl)-6-fluoro-5H-thiazolo[2,3-b]quinazoline dihydrochloride]	≥ 5.00
Clc1ccc2c(c1)CN1C(CSC3=NCC(Cc4ccccc4)N3)=CSC1=N2 (stereo not shown) [Example 20, 3-(((5-benzyl-4,5-dihydro-1H-imidazol-2-yl)thio)methyl)-7-chloro-5H-thiazolo[2,3-b]quinazoline dihydrochloride]	≥ 5.00
CC1(C)N=C(SCC2=CSC3=NCc4ccccc4CN23)Nc2ccccc21 [Example 21, 3-(((4,4-dimethyl-1,4-dihydroquinazolin-2-yl)thio)methyl)-5,10-dihydrobenzo[e]thiazolo[3,2-a][1,3]diazepine dihydrochloride]	≥ 5.00
Clc1ccc(C2CN=C(SCC3=CSC4=NCc5ccccc5CN34)N2)cc1 (stereo not shown) [Example 22, 3-(((4-(4-chlorophenyl)-4,5-dihydro-1H-imidazol-2-yl)thio)methyl)-5,10-dihydrobenzo[e]thiazolo[3,2-a][1,3]diazepine dihydrochloride]	≥ 5.00
Fc1cccc2c1CN=C(SCC1=CSC3=NCc4ccccc4CN13)N2 [Example 23, 3-(((5-fluoro-1,4-dihydroquinazolin-2-yl)thio)methyl)-5,10-dihydrobenzo[e]thiazolo[3,2-a][1,3]diazepine dihydrochloride]	≥ 5.00
C1=C(CSC2=N[C@@H](c3ccccc3)[C@H](c3ccccc3)N2)N2Cc3ccccc3CN=C2S1 [Example 24, 3-((((4S,5S)-4,5-diphenyl-4,5-dihydro-1H-imidazol-2-yl)thio)methyl)-5,10-dihydrobenzo[e]thiazolo[3,2-a][1,3]diazepine dihydrochloride]	≥ 5.00
